# Experimental data from PubChem BioAssay (NCI).
#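 Compound exposure: 48 hours, 5 concentrations, 96-well plates. GI50: concentration for 50% inhibition of growth. TGI is the concentration that stops growth completely.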
# Tests used:
# Assay in all cases: NCI anticancer screen, dose series, 48 h
# 786-0 renal = tested on: 786-0 renal
# DU-145 prostate = tested on: DU-145 prostate
# HCT-15 colon = tested on: HCT-15 colon
# IGROV1 ovarian = tested on: IGROV1 ovarian
# LOX IMVI melanoma = tested on: LOX IMVI melanoma
# OVCAR-3 ovarian = tested on: OVCAR-3 ovarian
# SW-620 colon = tested on: SW-620 colon
# TK-10 renal = tested on: TK-10 renal
# RPMI-8226 leukemia = tested on: RPMI-8226 leukemia
Structure (SMILES),TGI (786-0 renal),TGI (DU-145 prostate),TGI (HCT-15 colon),TGI (IGROV1 ovarian),TGI (LOX IMVI melanoma),TGI (OVCAR-3 ovarian),TGI (SW-620 colon),TGI (TK-10 renal),TGI (RPMI-8226 leukemia),GI50 (DU-145 prostate),GI50 (HCT-15 colon),GI50 (IGROV1 ovarian),GI50 (LOX IMVI melanoma),GI50 (OVCAR-3 ovarian),GI50 (RPMI-8226 leukemia),GI50 (SW-620 colon),GI50 (TK-10 renal)
NCCCC[C@H](N)C(=O)Nc1ccc(-c2nc3ccccc3s2)cc1,32.9 µM,49.1 µM,33.7 µM,31.5 µM,72 µM,37.2 µM,30.6 µM,> 100 µM,,,,,,,,,
C/C=C(\C)C(O)C(C)C(O)C/C=C(C)/C=C(\C)C/C(C)=C/C/C=C(\C)C(O)C(C)c1ccc(CCC)c(=O)o1 (stereo not given),55.7 µM,91.7 µM,15.3 µM,32.8 µM,28.3 µM,27.8 µM,28.4 µM,71.8 µM,> 100 µM,,,,,,,,
NC(Cc1ccc(N(CCCl)CCCl)cc1)C(=O)NC(CCC(=O)O)C(=O)O (stereo not given),> 100 µM,> 100 µM,> 100 µM,> 100 µM,> 100 µM,> 100 µM,> 100 µM,> 100 µM,> 100 µM,,,,,,,,
CC(C)NC(=O)N(Nc1ccccc1)C(C)(C)C,> 100 µM,,> 100 µM,> 100 µM,> 100 µM,> 100 µM,> 100 µM,> 100 µM,,,,,,,,,
COC(O)C(=O)c1ccc2c(c1)CC1(C2)Cc2cc3c(cc2C1=O)CCC3 (stereo not given),31.4 µM,31.1 µM,58 µM,32.8 µM,10.1 µM,34.5 µM,30.3 µM,36.2 µM,32.7 µM,,,,,,,,
O=C1C(=O)N(c2cccc(C(F)(F)F)c2)C(=S)N1c1ccccc1,> 100 µM,> 100 µM,40.7 µM,63.2 µM,,,> 100 µM,8.84 µM,> 100 µM,,,,,,,,
CC1SCc2nc3ccccc3n21 (stereo not given),> 100 µM,> 100 µM,> 100 µM,> 100 µM,> 100 µM,> 100 µM,,> 100 µM,> 100 µM,,,,,,,,
CCOc1ccc(N/C(=C(/C(Cl)=C(/Cl)N2CCCCC2)[N+](=O)[O-])n2nnc3ccccc32)cc1,39.8 µM,82.4 µM,29 µM,,,33.7 µM,,> 100 µM,> 100 µM,,,,,,,,
CC1=C(c2ccccc2)NC(=S)C(C)C(c2ccccc2)=N1 (stereo not given),> 100 µM,> 100 µM,> 100 µM,> 100 µM,> 100 µM,,> 100 µM,> 100 µM,57.5 µM,,,,,,,,
CN(C)C(c1ccccc1)C1COC2Cc3ccccc3C1O2 (stereo not given),> 100 µM,> 100 µM,> 100 µM,> 100 µM,> 100 µM,> 100 µM,,> 100 µM,> 100 µM,,,,,,,,
Nc1nc2ncc(CNc3ccc(C(=O)NC(CCC(=O)O)C(=O)O)cc3)nc2c(=O)[nH]1 (stereo not given),> 100 µM,,> 100 µM,> 100 µM,> 100 µM,> 100 µM,> 100 µM,> 100 µM,> 100 µM,,,,,,,,
CCC(=O)Nc1ccc(NC(C#N)c2cccc(Oc3ccccc3)c2)cc1 (stereo not given),> 100 µM,> 100 µM,> 100 µM,> 100 µM,47 µM,> 100 µM,> 100 µM,,66.9 µM,,,,,,,,
O=[N+]([O-])C(=C(N1CCOCC1)N1CCOCC1)/C(Cl)=C(\Cl)Br,58.4 µM,> 100 µM,28.9 µM,,41.1 µM,28.5 µM,28.8 µM,,33.5 µM,,,,,,,,
[N-]=[N+]=NC(c1cn(C2CC(O)C(CO)O2)c(=O)[nH]c1=O)C(Cl)I (stereo not given),> 100 µM,> 100 µM,> 100 µM,> 100 µM,,> 100 µM,> 100 µM,> 100 µM,> 100 µM,,,,,,,,
COc1cc(/C=N/n2c(-c3ccccc3)nn(C(C)=O)c2=O)cc(OC)c1OC,> 53.1 µM,> 89.1 µM,> 100 µM,> 100 µM,> 100 µM,,> 100 µM,31.8 µM,9.59 µM,,,,,,,,
N#CC(Cc1ccccc1)N(CCC1=CCCCC1)Cc1ccccc1 (stereo not given),> 100 µM,> 100 µM,> 100 µM,> 100 µM,,> 100 µM,> 100 µM,> 100 µM,63.5 µM,,,,,,,,
CS(=O)(=O)c1ccc(N=C/C=C/Nc2ccc(S(C)(=O)=O)cc2)cc1,> 100 µM,> 100 µM,> 100 µM,> 100 µM,,> 100 µM,> 100 µM,> 100 µM,> 100 µM,,,,,,,,
O=C(Nc1ccc(-n2ccc3c(NC(=O)c4ccccc4)ncnc32)cc1)Nc1ccc(Cl)c(Cl)c1,,6.31 µM,6.97 µM,18.2 µM,16.3 µM,3.5 µM,5.31 µM,3.46 µM,3.2 µM,1.9 µM,1.74 µM,7.16 µM,2.38 µM,1.35 µM,1.21 µM,1.54 µM,1.44 µM
CCOC(=O)c1cc2/c(=C\c3ccc(N(C)C)cc3)c3ccccc3n2[n+]1C,15 µM,17.4 µM,31.9 µM,,3.78 µM,0.581 µM,13.1 µM,21.9 µM,,,,,,,,,
C/C(CC(O)(/C=N/O)c1ccccc1)=N/O (stereo not given),> 100 µM,,> 100 µM,> 100 µM,> 100 µM,> 100 µM,> 100 µM,> 100 µM,> 100 µM,,,,,,,,
Cc1ccc(/C(O)=C/C(=O)C(=O)NC23CC4CC(CC(C4)C2)C3)cc1,> 10 µM,> 10 µM,> 10 µM,,> 10 µM,,> 10 µM,> 10 µM,> 10 µM,,,,,,,,
O=C(CN1CCOCC1)c1ccc2c(c1)oc(=O)n2CCN1CCOCC1,> 100 µM,> 100 µM,,> 100 µM,> 100 µM,> 100 µM,> 100 µM,,> 100 µM,,,,,,,,
COc1cc(-c2cc(=O)c3c(O)c(CC=C(C)C)c(O)cc3o2)ccc1O,,> 50 µM,> 50 µM,> 50 µM,> 50 µM,> 50 µM,> 50 µM,> 50 µM,36.3 µM,,,,,,,,
CC(=O)OCC1OC(Nn2c(=O)[nH]c3ccccc3c2=O)C(OC(C)=O)C(OC(C)=O)C1OC(C)=O (stereo not given),> 100 µM,> 100 µM,> 100 µM,> 100 µM,> 100 µM,> 100 µM,> 100 µM,,> 100 µM,,,,,,,,
